# Measured values as given in patent US20140275711A1, “1-(Arylmethyl)-5,6,7,8-tetrahydroquinazolline-2,4-diones and Analogs and the Use Thereof” (Impact Therapeutics, Inc., priority 2011, published 2014).
# pEC50, pIC50: −log10 of the molar value. Read-outs that look alike come from different tables or passages of the source.
# Assays:
# [1] = system: BRCA-2 deficient CAPAN-1 human pancreatic cancer cells; experiment: Cell growth inhibition of BRCA-2 deficient CAPAN-1 cells, MTT based cell viability assay; details: read-out: Growth inhibition of CAPAN-1 cells by compounds (IC50)
# Experimental: BRCA-2 deficient CAPAN-1 human pancreatic cancer cells were used to test the growth inhibiting activity of substituted 1-(arylmethyl)-5,6,7,8-tetrahydroquinazoline-2,4(1H,3H)-diones. Briefly, CAPAN-1 cells are grown and maintained in IMEM medium supplemented with 20% FBS. The assay takes 10 days to finish. On day 1, 6000 CAPAN-1 cells are seeded to each well of a 96-well plate. The cells are incubated at 37° C. in a CO2 cell culture incubator overnight. […] Ten-fold compound solutions were made by mixing 10 μl DMSO serial dilution solutions with 90 μl fresh growth medium. The cell culture medium was removed and 180 μl fresh media with FBS and 20 μl of compound solutions were added to each well. The final concentration of DMSO was 1%. Cells were then returned to the CO2 cell culture incubator and incubated at 37° C. for two days (day 3 and day 4). On day 5, the same procedure as what was done on day 2 was repeated. Cell culture medium was removed and fresh medium containing serial dilutions of compounds or reference compounds were added. Cells were returned to the CO2 cell culture incubator and incubated for two more days. On day 8, same procedure was repeated again and fresh medium containing the testing compounds or reference compounds were added and incubated for an additional 2 days. On day 10, 20 μl of MTT reagent (5 mg/ml) was added to each well of the cell culture plate and incubated for 4 h. The cell culture media was removed and 100 μl DMSO was added to each well. The 96-well cell culture plates were shaked horizontally for 10 min and readed in a Varioskan Flash plate reader (Thermo Fisher Scientific) at 520 and 690 nm. The obtained 520 nm absorbance readings substracting corresponding 690 nm reading were analyzed using a commercial graphic software (GraphPad Prism 5) and plotted against the Log scale of the compound concentrations.
# [2] = system: SW620 human colorectal cancer cells; experiment: Potentiation of the growth inhibiting activity of MMS, MTT based cell viability assay; details: read-out: Compounds potentiate the growth inhibiting activity of MMS (IC50)
# Experimental: The synergistic potentiation effect of PARP inhibitors on the growth inhibiting activity of DNA damaging anticancer drugs such as methyl methanesulphonate (MIMS) were measured with SW620 human colorectal cancer cells (Shanghai Cancer Institute) using a MTT based cell viability assay. SW620 cells were grown and maintained in RPMI1640 (Gibco) medium supplemented with 10% FBS (Hyclone). In the first day of experiment, 4000 cells were seeded to each well of a 96-well cell culture plate and incubated at 37° C. and 5% CO2 in a cell culture incubator overnight. In the next day, the cell culture medium was removed. […] The serial dilutions of the reference compounds and the compounds to be tested were made with a 1:3 and 1:10 fashion in DMSO. The 10-fold concentrated solutions of these compounds were made by mixing 10 μl of the serial dilutions in DMSO with 90 μl fresh medium. The final concentration of DMSO in the medium was 1%. The cells were incubated at 37° C. in 5% CO2 cell culture incubator for additional 5 days (120 hours). Afterwards, the 96-well cell culture plate was taken out and 20 μl of MTT solution was added to each well and incubated at 37° C. for 4 h. The medium was removed and 100 μl DMSO was added to each well. The 96-well cell culture plates were shaked adequately for 10 min and readed in a Varioskan Flash plate reader (Thermo Fisher Scientific) at 520 and 690 nm. The data were analyzed by Prism 5 software (GraphPad). The obtained 520 nm absorbance readings substracting corresponding 690 nm reading were analyzed and plotted against the Log scale of the compound concentrations.
# [3] = system: Human breast cancer cell line T47D; experiment: Potentiation of MMS induced apoptosis, cell based caspase-3 activity assay; details: read-out: Compounds potentiate the apoptosis inducing activity of MMS (EC50);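 also: Caspase-3 activity in cell lysates measured by fluorescence (RFU), EC50 fitted from sigmoidal curve of signal versus log compound concentration in presence of MMS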
# Experimental: Human breast cancer cell line T47D (Nanjing KeyGEN Biotech. CO., LTD.) was used to determine the potentiation effect of PARP-1 inhibitors on the apoptosis inducing activity of DNA damaging anticancer drugs such as MMS. Intracellular caspase-3 activity was used to measure cell apoptosis. Briefly, T47D cells were grown in DMEM/F12 cell culture medium (Hyclone) supplemented with 0.2 U/ml insulin (Genview) and 10% FBS (Hyclone). A day before experiment, 20000 of T47D cells were seeded to each well of a 96-well cell culture plate and maintained at 37° C. and 5% CO2 in a cell culture incubator overnight. On the day of experiment, cell culture medium was removed. […] The serial dilutions of the compounds to be tested and the reference compounds were made in a 1:3 and 1:10 fashion in DMSO. The 10-fold compound solutions were made by mixing 10 μl DMSO serial dilution solutions with 90 μl fresh growth medium. Twenty four hours later, the cells in the 96-well plates were centrifuged at 1000 g for 5 min and the supernatants were removed. 50 μl lysis buffer (10 mM Tris, pH 7.5, 0.1M NaCl, 1 mM EDTA, 0.01% Triton X-100) was added to each well and the plates were shaked horizontally for 30 min at 4° C. After centrifugation at 1000 g at 4° C. for 10 min, 20 μl of supernatant was transferred from each well to a corresponding well in a 384-well black plate. […] The plates were shaked to uniformly mix the wells and incubated at 37° C. for 3 h. […] The caspase-3 activity induced by the compounds was expressed as a relative fluorescence unit (RFU). The obtained fluorescence readings were analyzed using a commercial graphic software (GraphPad Prism 5) and plotted against the Log value of the compound concentrations. The EC50 values were obtained by fitting the data points with the equation of Y (fluorescence reading)=minimal fluorescence reading+(maximal fluorescence reading−minimal fluorescence reading)/(1+10̂(LogEC50−LogC)), where C is the concentration of the testing compound. The EC50 values were obtained by fitting the data points with S-shaped dose response curve equation (GraphPad Software, Inc).
# [4] = molecular target: T1, PARP-1 enzyme (Homo sapiens, UniProt P09874); experiment: PARP-1 enzymatic activity assay (Trevigen 96-well kit); assay type: biochemical; details: 0.5 unit PARP-1, histone pre-coated plate, 60 min room temperature; read-out: The inhibitory effect of compounds on PARP-1 enzymatic activity (IC50)
# T1 construct: purchased Trevigen, Inc. 4676-096-K
# T1 sequence (P09874 whole entry): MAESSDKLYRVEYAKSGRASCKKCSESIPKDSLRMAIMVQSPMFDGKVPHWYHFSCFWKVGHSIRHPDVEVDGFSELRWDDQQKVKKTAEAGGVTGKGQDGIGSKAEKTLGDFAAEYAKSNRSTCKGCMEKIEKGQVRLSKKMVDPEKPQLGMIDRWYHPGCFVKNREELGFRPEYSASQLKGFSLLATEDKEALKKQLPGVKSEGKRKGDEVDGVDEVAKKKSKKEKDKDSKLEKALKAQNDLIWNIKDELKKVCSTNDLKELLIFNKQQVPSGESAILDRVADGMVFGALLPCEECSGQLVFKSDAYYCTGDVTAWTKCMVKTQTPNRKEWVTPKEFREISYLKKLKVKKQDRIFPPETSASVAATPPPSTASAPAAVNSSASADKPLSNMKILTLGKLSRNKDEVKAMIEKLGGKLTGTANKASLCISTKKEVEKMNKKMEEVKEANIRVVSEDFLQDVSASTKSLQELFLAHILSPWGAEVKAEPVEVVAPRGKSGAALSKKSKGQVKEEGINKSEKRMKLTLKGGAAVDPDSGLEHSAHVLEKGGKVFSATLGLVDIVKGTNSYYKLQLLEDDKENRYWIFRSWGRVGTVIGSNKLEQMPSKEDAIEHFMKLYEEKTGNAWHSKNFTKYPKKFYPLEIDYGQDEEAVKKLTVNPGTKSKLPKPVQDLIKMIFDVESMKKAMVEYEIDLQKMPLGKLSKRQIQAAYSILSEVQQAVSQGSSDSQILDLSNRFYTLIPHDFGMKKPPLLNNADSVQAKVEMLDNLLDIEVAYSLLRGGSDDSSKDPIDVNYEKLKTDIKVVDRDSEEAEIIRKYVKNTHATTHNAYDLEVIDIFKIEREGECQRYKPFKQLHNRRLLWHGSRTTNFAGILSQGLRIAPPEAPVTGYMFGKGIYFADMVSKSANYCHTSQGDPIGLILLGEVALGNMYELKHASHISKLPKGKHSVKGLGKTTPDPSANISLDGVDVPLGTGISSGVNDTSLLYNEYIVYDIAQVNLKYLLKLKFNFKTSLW
# Experimental: Briefly, PARP-1 catalyzes the NAD-dependent addition of poly(ADP-ribose) to its nuclear protein substrates such as histones. The assay kit measures the incorporation of biotynylated poly(ADP-ribose) onto histone proteins in a 96-well format.
# To each well of histone pre-coated plate 10 μl of 5-fold concentrations of testing compounds or reference compound, 15 μl of PARP-1 enzyme (0.5 unit) and 25 μl reaction buffer were added and the plates were incubated at room temperature for 60 min. The plates were washed with 200 μl PBS with 0.1% Triton X-100 twice and then with 200 μl PBS twice. The residual liquid was removed by carefully tapping the plates on paper towels. Equal volumes of PeroxyGlow™ solution A and B were mixed and 100 μl of the solution was added to each well. The luminescence readings were read immediately in a Varioskan Flash plate reader (Thermo Fisher Scientific).
# [5] = BRCA-2 deficient CAPAN-1 cells, 10 day assay, MTT
# [6] = SW620 cells, medium containing 1.5 μg/ml MMS, 5 days (120 hours), MTT
# [7] = T47D cells, 100 nM MMS, 24 hours, intracellular caspase-3 activity
smiles,measurement,setting,value
"O=C(c1ccsc1)N1CCN(C(=O)c2cc(Cn3c4c(c(=O)[nH]c3=O)CCCC4)ccc2F)CC1 [Example 36, 1-(4-Fluoro-3-(4-(thiophene-3-carbonyl)piperazine-1-carbonyl)benzyl)-5,6,7,8-tetrahydroquinazoline-2,4(1H,3H)-dione]",pIC50,"[1]; Homo sapiens, CAPAN-1, 240 h",6.66
same,pIC50,"[2]; Homo sapiens, SW-620, 120 h",8.47
same,pEC50,"[3]; Homo sapiens, T47D, 24 h",7.89
"O=C(c1cc(Cn2c3c(c(=O)[nH]c2=O)CCCC3)ccc1F)N1CCN(CC2CCCCC2)CC1 [Example 38, 1-(4-Fluoro-3-(4-(cyclohexylmethyl)piperazine-1-carbonyl)benzyl)-5,6,7,8-tetrahydroquinazoline-2,4(1H,3H)-dione]",pIC50,"[1]; Homo sapiens, CAPAN-1, 240 h",5.64
same,pIC50,"[2]; Homo sapiens, SW-620, 120 h",8.00
same,pEC50,"[3]; Homo sapiens, T47D, 24 h",7.60
O=C(c1cc(Cn2c3c(c(=O)[nH]c2=O)CCCC3)ccc1F)N1CCN(c2ncccn2)CC1 [Example 20],pIC50,"[1]; Homo sapiens, CAPAN-1, 240 h",7.77
same,pIC50,"[2]; Homo sapiens, SW-620, 120 h",9.08
same,pIC50,[4],8.59
same,pEC50,"[3]; Homo sapiens, T47D, 24 h",9.00
"O=C(c1cc(Cn2c3c(c(=O)[nH]c2=O)CCCC3)ccc1F)N1CCN(C(=O)C2CCCC2)CC1 [Example 25, 1-(4-Fluoro-3-(4-(cyclopentylcarbonyl)piperazine-1-carbonyl)benzyl)-5,6,7,8-tetrahydroquinazoline-2,4(1H,3H)-dione]",pIC50,"[1]; Homo sapiens, CAPAN-1, 240 h",7.16
same,pIC50,"[2]; Homo sapiens, SW-620, 120 h",8.72
same,pEC50,"[3]; Homo sapiens, T47D, 24 h",8.21
"O=C(c1cc(Cn2c3c(c(=O)[nH]c2=O)CCCC3)ccc1F)N1CCN(C(=O)C2CCOCC2)CC1 [Example 53, 1-(4-Fluoro-3-(4-(tetrahydro-2H-pyran-4-carbonyl)piperazine-1-carbonyl)benzyl)-5,6,7,8-tetraquinazoline-2,4(1H,3H)-dione]",pIC50,[1]; [5],6.57
same,pIC50,[2]; [6],7.21
same,pEC50,[3]; [7],7.01
"O=C(c1cc(Cc2n[nH]c(=O)c3ccccc23)ccc1F)N1CCN(C(=O)C2CC2)CC1 [AZD2281, olaparib, reference compound]",pIC50,"[1]; Homo sapiens, CAPAN-1, 240 h",5.97
same,pIC50,"[2]; Homo sapiens, SW-620, 120 h",7.34
same,pEC50,"[3]; Homo sapiens, T47D, 24 h",7.85
"O=C(c1ccc(F)c(Cn2c3c(c(=O)[nH]c2=O)CCCC3)c1)N1CCN(C(=O)C2CCC2)CC1 [Example 50, 1-(6-Fluoro-3-(4-(cyclobutylcarbonyl)piperazine-1-carbonyl)benzyl)-5,6,7,8-tetrahydroquinazoline-2,4(1H,3H)-dione]",pIC50,"[1]; Homo sapiens, CAPAN-1, 240 h",6.00
same,pIC50,"[2]; Homo sapiens, SW-620, 120 h",7.80
same,pEC50,"[3]; Homo sapiens, T47D, 24 h",7.92
"O=C(c1ccc(F)c(Cn2c3c(c(=O)[nH]c2=O)CCCC3)c1)N1CCN(c2nccs2)CC1 [Example 51, 1-(6-Fluoro-3-(4-(thiazol-2-yl)piperazine-1-carbonyl)benzyl)-5,6,7,8-tetrahydroquinazoline-2,4(1H,3H)-dione]",pIC50,"[1]; Homo sapiens, CAPAN-1, 240 h",6.87
same,pIC50,"[2]; Homo sapiens, SW-620, 120 h",7.89
same,pEC50,"[3]; Homo sapiens, T47D, 24 h",7.96
"O=C(c1ccoc1)N1CCN(C(=O)c2cc(Cn3c4c(c(=O)[nH]c3=O)CCCC4)ccc2F)CC1 [Example 35, 1-(4-Fluoro-3-(4-(furan-3-carbonyl)piperazine-1-carbonyl)benzyl)-5,6,7,8-tetrahydroquinazoline-2,4(1H,3H)-dione]",pIC50,"[1]; Homo sapiens, CAPAN-1, 240 h",6.55
same,pIC50,"[2]; Homo sapiens, SW-620, 120 h",8.40
same,pEC50,"[3]; Homo sapiens, T47D, 24 h",7.92
"O=C(c1ccc(F)c(Cn2c3c(c(=O)[nH]c2=O)CCCC3)c1)N1CCN(C(=O)C2CCCCC2)CC1 [Example 49, 1-(6-Fluoro-3-(4-(cyclohexylcarbonyl)piperazine-1-carbonyl)benzyl)-5,6,7,8-tetrahydroquinazoline-2,4(1H,3H)-dione]",pIC50,"[1]; Homo sapiens, CAPAN-1, 240 h",6.91
same,pIC50,"[2]; Homo sapiens, SW-620, 120 h",8.28
same,pEC50,"[3]; Homo sapiens, T47D, 24 h",8.14
"O=C(c1ccc(F)c(Cn2c3c(c(=O)[nH]c2=O)CCCC3)c1)N1CCN(C(=O)C2CCCC2)CC1 [Example 42, 1-(6-Fluoro-3-(4-(cyclopentylcarbonyl)piperazine-1-carbonyl)benzyl)-5,6,7,8-tetrahydroquinazoline-2,4(1H,3H)-dione]",pIC50,"[1]; Homo sapiens, CAPAN-1, 240 h",6.84
same,pIC50,"[2]; Homo sapiens, SW-620, 120 h",8.32
same,pEC50,"[3]; Homo sapiens, T47D, 24 h",8.40
"O=C(c1cc(Cn2c3c(c(=O)[nH]c2=O)CCCC3)ccc1F)N1CCN(C2CCCCC2)CC1 [Example 30, 1-(4-Fluoro-3-(4-cyclohexylpiperazine-1-carbonyl)benzyl)-5,6,7,8-tetrahydroquinazoline-2,4(1H,3H)-dione]",pIC50,"[1]; Homo sapiens, CAPAN-1, 240 h",5.91
same,pIC50,"[2]; Homo sapiens, SW-620, 120 h",7.92
same,pEC50,"[3]; Homo sapiens, T47D, 24 h",7.49
O=C(c1ccc(F)c(Cn2c3c(c(=O)[nH]c2=O)CCCC3)c1)N1CCN(c2ncccn2)CC1 [Example 41],pIC50,[1]; [5],7.72
same,pIC50,[2]; [6],8.39
same,pEC50,[3]; [7],8.66
"O=C(c1cccc(Cn2c3c(c(=O)[nH]c2=O)CCCC3)c1)N1CCN(c2ccccn2)CC1 [Example 11, 1-(3-(4-(Pyridin-2-yl)piperazine-1-carbonyl)benzyl)-5,6,7,8-tetrahydroquinazoline-2,4(1H,3H)-dione]",pIC50,"[1]; Homo sapiens, CAPAN-1, 240 h",7.49
same,pIC50,"[2]; Homo sapiens, SW-620, 120 h",8.16
same,pEC50,"[3]; Homo sapiens, T47D, 24 h",7.51
"O=C(c1cc(Cn2c3c(c(=O)[nH]c2=O)CCCC3)ccc1F)N1CCN(C(=O)C2CCCCC2)CC1 [Example 24, 1-(4-Fluoro-3-(4-(cyclohexylcarbonyl)piperazine-1-carbonyl)benzyl)-5,6,7,8-tetrahydroquinazoline-2,4(1H,3H)-dione]",pIC50,"[1]; Homo sapiens, CAPAN-1, 240 h",7.24
same,pIC50,"[2]; Homo sapiens, SW-620, 120 h",8.44
same,pEC50,"[3]; Homo sapiens, T47D, 24 h",8.00
"O=C(c1ccccc1)N1CCN(C(=O)c2cc(Cn3c4c(c(=O)[nH]c3=O)CCCC4)ccc2F)CC1 [Example 18, 1-(4-Fluoro-3-(4-benzoylpiperazine-1-carbonyl)benzyl)-5,6,7,8-tetrahydroquinazoline-2,4(1H,3H)-dione]",pIC50,"[1]; Homo sapiens, CAPAN-1, 240 h",7.46
same,pIC50,"[2]; Homo sapiens, SW-620, 120 h",8.02
same,pEC50,"[3]; Homo sapiens, T47D, 24 h",7.39
"O=C(c1cccs1)N1CCN(C(=O)c2cc(Cn3c4c(c(=O)[nH]c3=O)CCCC4)ccc2F)CC1 [Example 21, 1-(4-Fluoro-3-(4-(thiophene-2-carbonyl)piperazine-1-carbonyl)benzyl)-5,6,7,8-tetrahydroquinazoline-2,4(1H,3H)-dione]",pIC50,"[1]; Homo sapiens, CAPAN-1, 240 h",7.00
same,pIC50,"[2]; Homo sapiens, SW-620, 120 h",8.89
same,pEC50,"[3]; Homo sapiens, T47D, 24 h",8.55
"O=C(c1ccco1)N1CCN(C(=O)c2cc(Cn3c4c(c(=O)[nH]c3=O)CCCC4)ccc2F)CC1 [Example 27, 1-(4-Fluoro-3-(4-(furan-2-carbonyl)piperazine-1-carbonyl)benzyl)-5,6,7,8-tetrahydroquinazoline-2,4(1H,3H)-dione]",pIC50,"[1]; Homo sapiens, CAPAN-1, 240 h",7.09
same,pIC50,"[2]; Homo sapiens, SW-620, 120 h",8.01
same,pEC50,"[3]; Homo sapiens, T47D, 24 h",7.24
"O=C(c1cc(Cn2c3c(c(=O)[nH]c2=O)CCCC3)ccc1F)N1CCN(C(=O)C2CCCO2)CC1 (stereo not shown) [Example 39, 1-(4-Fluoro-3-(4-(tetrahydrofuran-2-carbonyl)piperazine-1-carbonyl)benzyl)-5,6,7,8-tetrahydroquinazoline-2,4(1H,3H)-dione]",pIC50,"[1]; Homo sapiens, CAPAN-1, 240 h",6.82
same,pIC50,"[2]; Homo sapiens, SW-620, 120 h",7.82
same,pEC50,"[3]; Homo sapiens, T47D, 24 h",7.49
"O=C(c1cc(Cn2c3c(c(=O)[nH]c2=O)CCCC3)ccc1F)N1CCN(C(=O)C2CCC2)CC1 [Example 22, 1-(4-Fluoro-3-(4-(cyclobutylcarbonyl)piperazine-1-carbonyl)benzyl)-5,6,7,8-tetrahydroquinazoline-2,4(1H,3H)-dione]",pIC50,"[1]; Homo sapiens, CAPAN-1, 240 h",6.93
same,pIC50,"[2]; Homo sapiens, SW-620, 120 h",8.77
same,pEC50,"[3]; Homo sapiens, T47D, 24 h",8.55
O=C(c1cc(Cn2c3c(c(=O)[nH]c2=O)SCCC3)ccc1F)N1CCN(c2ncccn2)CC1 [Example 60],pIC50,[1]; [5],6.12
same,pIC50,[2]; [6],8.12
same,pEC50,[3]; [7],7.52
"O=C(c1cc(Cn2c3c(c(=O)[nH]c2=O)CCCC3)ccc1F)N1CCN(c2nccs2)CC1 [Example 23, 1-(4-Fluoro-3-(4-(thiazol-2-yl)piperazine-1-carbonyl)benzyl)-5,6,7,8-tetrahydroquinazoline-2,4(1H,3H)-dione]",pIC50,"[1]; Homo sapiens, CAPAN-1, 240 h",7.31
same,pIC50,"[2]; Homo sapiens, SW-620, 120 h",8.82
same,pEC50,"[3]; Homo sapiens, T47D, 24 h",8.80
"O=C(c1cc(Cn2c3c(c(=O)[nH]c2=O)CCCC3)ccc1F)N1CCN(c2ccccc2)CC1 [Example 33, 1-(4-Fluoro-3-(4-phenylpiperazine-1-carbonyl)benzyl)-5,6,7,8-tetrahydroquinazoline-2,4(1H,3H)-dione]",pIC50,"[1]; Homo sapiens, CAPAN-1, 240 h",5.44
same,pIC50,"[2]; Homo sapiens, SW-620, 120 h",8.12
same,pEC50,"[3]; Homo sapiens, T47D, 24 h",6.73
"O=C(c1ccc(F)c(Cn2c3c(c(=O)[nH]c2=O)CCCC3)c1)N1CCN(c2ccccn2)CC1 [Example 47, 1-(6-Fluoro-3-(4-(pyridin-2-yl)piperazine-1-carbonyl)benzyl)-5,6,7,8-tetrahydroquinazoline-2,4(1H,3H)-dione]",pIC50,"[1]; Homo sapiens, CAPAN-1, 240 h",6.94
same,pIC50,"[2]; Homo sapiens, SW-620, 120 h",8.34
same,pEC50,"[3]; Homo sapiens, T47D, 24 h",8.19
